From patent publication US8574563B2 (Bristol-Myers Squibb Company, priority 2006, dated 2013)
pEC50: −log10 of the molar value.

Tested on: HCV 1b-377-neo replicon cells
Experiment: HCV replicon assay, HCV 1b-377-neo replicon cells (1b FRET)
Type: cell-based, Hepatitis C virus genotype 1b
Conditions: Hepatitis C virus, HCV 1b-377-neo replicon cells; HCV 1b genotype; read-out: EC50 range against HCV 1b (Table 2, Range)
How it was run: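 Compounds were tested in genotype 1b subgenomic replicon cells carrying a neomycin marker, alongside a matched replicon line with an NS5A Y2065H substitution that confers resistance to a reference NS5A inhibitor.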

| SMILES | pEC50 |
| --- | --- |
| COC(=O)N[C@H](C(=O)N1CCC[C@H]1c1ncc(-c2ccc(-c3ccc(-c4nc([C@@H]5CCCN5C(=O)[C@@H](NC(=O)OC)C(C)C)[nH]c4CO)cc3)cc2)[nH]1)C(C)C [Example J14f, methyl ((1S)-1-(((2S)-2-(4-(hydroxymethyl)-5-(4′-(2-((2S)-1-((2S)-2-((methoxycarbonyl)amino)-3-methylbutanoyl)-2-pyrrolidinyl)-1H-imidazol-4-yl)-4-biphenylyl)-1H-imidazol-2-yl)-1-pyrrolidinyl)carbonyl)-2-methylpropyl)carbamate] | 9.00 to 12.00 |
| COC(=O)N[C@@H](C)C(=O)N1CCC[C@H]1c1ncc(-c2ccc(-c3ccc(-c4nc([C@@H]5CCCN5C(=O)[C@H](C)NC(=O)OC)[nH]c4CO)cc3)cc2)[nH]1 [Example J14f.1, methyl ((1S)-2-((2S)-2-(4-(4′-(4-(hydroxymethyl)-2-((2S)-1-(N-(methoxycarbonyl)-L-alanyl)-2-pyrrolidinyl)-1H-imidazol-5-yl)-4-biphenylyl)-1H-imidazol-2-yl)-1-pyrrolidinyl)-1-methyl-2-oxoethyl)carbamate] | 7.00 to 9.00 |
| COC(=O)N[C@@H](C(=O)N1CCC[C@H]1c1ncc(-c2ccc(-c3ccc(-c4[nH]c([C@@H]5CCCN5C(=O)[C@H](NC(=O)OC)c5ccccc5)nc4C(=O)OC)cc3)cc2)[nH]1)c1ccccc1 [Example J16, methyl 2-((2S)-l-((2R)-2-((methoxycarbonyl)amino)-2-phenylacetyl)-2-pyrrolidinyl)-5-(4′-(2-((2S)-1-((2R)-2-((methoxycarbonyl)amino)-2-phenylacetyl)-2-pyrrolidinyl)-1H-imidazol-5-yl)-4-biphenylyl)-1H-imidazole-4-carboxylate] | 9.00 to 12.00 |
| COC(=O)c1nc([C@@H]2CCCN2C(=O)[C@@H](c2ccccc2)N(C)C)[nH]c1-c1ccc(-c2ccc(-c3cnc([C@@H]4CCCN4C(=O)[C@@H](c4ccccc4)N(C)C)[nH]3)cc2)cc1 [Example J17, methyl 2-((2S)-l-((2R)-2-(dimethylamino)-2-phenylacetyl)-2-pyrrolidinyl)-5-(4′-(2-((2S)-1-((2R)-2-(dimethylamino)-2-phenylacetyl)-2-pyrrolidinyl)-1H-imidazol-5-yl)-4-biphenylyl)-1H-imidazole-4-carboxylate] | 9.00 to 12.00 |
| COC(=O)c1nc([C@@H]2CCCN2C(=O)[C@@H](c2ccccc2)N2CCCCC2)[nH]c1-c1ccc(-c2ccc(-c3cnc([C@@H]4CCCN4C(=O)[C@@H](c4ccccc4)N4CCCCC4)[nH]3)cc2)cc1 [Example J18, methyl 2-((2S)-1-((2R)-2-phenyl-2-(1-piperidinyl)acetyl)-2-pyrrolidinyl)-5-(4′-(2-((2S)-1-((2R)-2-phenyl-2-(1-piperidinyl)acetyl)-2-pyrrolidinyl)-1H-imidazol-5-yl)-4-biphenylyl)-1H-imidazole-4-carboxylate] | 9.00 to 12.00 |
| CCOC(=O)c1nc([C@@H]2CCCN2C(=O)[C@H](NC(=O)OC)c2ccccc2)[nH]c1-c1ccc(-c2ccc(-c3cnc([C@@H]4CCCN4C(=O)[C@H](NC(=O)OC)c4ccccc4)[nH]3)cc2)cc1 [Example J19, ethyl 2-((2S)-1-((2R)-2-((methoxycarbonyl)amino)-2-phenylacetyl)-2-pyrrolidinyl)-5-(4′-(2-((2S)-1-((2R)-2-((mcthoxycarbonyl)amino)-2-phenylacetyl)-2-pyrrolidinyl)-1H-imidazol-5-yl)-4-biphenylyl)-1H-imidazole-4-carboxylate] | 9.00 to 12.00 |
| CCOC(=O)c1nc([C@@H]2CCCN2C(=O)[C@@H](c2ccccc2)N(C)C)[nH]c1-c1ccc(-c2ccc(-c3cnc([C@@H]4CCCN4C(=O)[C@@H](c4ccccc4)N(C)C)[nH]3)cc2)cc1 [Example J20, ethyl 2-((2S)-l-((2R)-2-(dimethylamino)-2-phenylacetyl)-2-pyrrolidinyl)-5-(4-(2-((2S)-1-((2R)-2-(dimethylamino)-2-phenylacetyl)-2-pyrrolidinyl)-1H-imidazol-5-yl)-4-biphenylyl)-1H-imidazole-4-carboxylate] | 9.00 to 12.00 |
| COC(=O)N[C@@H](C(=O)N1CCC[C@H]1c1ncc(-c2ccc(-c3ccc(-c4[nH]c([C@@H]5CCCN5C(=O)[C@H](NC(=O)OC)c5ccccc5)nc4C(=O)OCc4ccccc4)cc3)cc2)[nH]1)c1ccccc1 [Example J21, benzyl 2-((2S)-1-((2R)-2-((methoxycarbonyl)amino)-2-phenylacetyl)-2-pyrrolidinyl)-5-(4′-(2-((2S)-1-((2R)-2-((methoxycarbonyl)amino)-2-phenylacetyl)-2-pyrrolidinyl)-1H-imidazol-5-yl)-4-biphenylyl)-1H-imidazole-4-carboxylate] | 9.00 to 12.00 |
| CN(C)[C@@H](C(=O)N1CCC[C@H]1c1ncc(-c2ccc(-c3ccc(-c4[nH]c([C@@H]5CCCN5C(=O)[C@@H](c5ccccc5)N(C)C)nc4C(=O)OCc4ccccc4)cc3)cc2)[nH]1)c1ccccc1 [Example J22, benzyl 2-((2S)-1-((2R)-2-(dimethylamino)-2-phenylacetyl)-2-pyrrolidinyl)-5-(4′-(2-((2S)-1-((2R)-2-(dimethylamino)-2-phenylacetyl)-2-pyrrolidinyl)-1H-imidazol-5-yl)-4-biphenylyl)-1H-imidazole-4-carboxylate] | 9.00 to 12.00 |
| O=C(OCc1ccccc1)c1nc([C@@H]2CCCN2C(=O)[C@@H](c2ccccc2)N2CCCCC2)[nH]c1-c1ccc(-c2ccc(-c3cnc([C@@H]4CCCN4C(=O)[C@@H](c4ccccc4)N4CCCCC4)[nH]3)cc2)cc1 [Example J23, benzyl 2-((2S)-1-((2R)-2-phenyl-2-(1-piperidinyl)acetyl)-2-pyrrolidinyl)-5-(4′-(2-((2S)-1-((2R)-2-phenyl-2-(1-piperidinyl)acetyl)-2-pyrrolidinyl)-1H-imidazol-5-yl)-4-biphenylyl)-1H-imidazole-4-carboxylate] | 9.00 to 12.00 |
| COC(=O)N[C@@H](C)C(=O)N1CCC[C@H]1c1nc(C(=O)OCc2ccccc2)c(-c2ccc(-c3ccc(-c4cnc([C@@H]5CCCN5C(=O)[C@@H](C)NC(=O)OC)[nH]4)cc3)cc2)[nH]1 [Example J24, benzyl 2-((2S)-l-(N-(methoxycarbonyl)-L-alanyl)-2-pyrrolidinyl)-5-(4-(2-((2S)-l-(N-(methoxycarbonyl)-L-alanyl)-2-pyrrolidinyl)-1H-imidazol-5-yl)-4-biphenylyl)-1H-imidazole-4-carboxylate] | 9.00 to 12.00 |
| CNC(=O)c1nc([C@@H]2CCCN2C(=O)[C@H](NC(=O)OC)c2ccccc2)[nH]c1-c1ccc(-c2ccc(-c3cnc([C@@H]4CCCN4C(=O)[C@H](NC(=O)OC)c4ccccc4)[nH]3)cc2)cc1 [Example J25, methyl ((1R)-2-((2S)-2-(5-(4′-(2-((2S)-1-((2R)-2-((methoxycarbonyl)amino)-2-phenylacetyl)-2-pyrrolidinyl)-1H-imidazol-5-yl)-4-biphenylyl)-4-(methylcarbamoyl)-1H-imidazol-2-yl)-1-pyrrolidinyl)-2-oxo-1-phenylethyl)carbamate] | 9.00 to 12.00 |
| CNC(=O)c1nc([C@@H]2CCCN2C(=O)[C@@H](c2ccccc2)N(C)C)[nH]c1-c1ccc(-c2ccc(-c3cnc([C@@H]4CCCN4C(=O)[C@@H](c4ccccc4)N(C)C)[nH]3)cc2)cc1 [Example J26] | 9.00 to 12.00 |
| CNC(=O)c1nc([C@@H]2CCCN2C(=O)[C@@H](c2ccccc2)N2CCCCC2)[nH]c1-c1ccc(-c2ccc(-c3cnc([C@@H]4CCCN4C(=O)[C@@H](c4ccccc4)N4CCCCC4)[nH]3)cc2)cc1 [Example J27, N-methyl-2-((2S)-1-((2R)-2-phenyl-2-(1-piperidinyl)acetyl)-2-pyrrolidinyl)-5-(4′-(2-((2S)-1-((2R)-2-phenyl-2-(1-piperidinyl)acetyl)-2-pyrrolidinyl)-1H-imidazol-5-yl)-4-biphenylyl)-1H-imidazole-4-carboxamide] | 9.00 to 12.00 |
| CNC(=O)c1nc([C@@H]2CCCN2C(=O)[C@H](C)NC(=O)OC)[nH]c1-c1ccc(-c2ccc(-c3cnc([C@@H]4CCCN4C(=O)[C@@H](C)NC(=O)OC)[nH]3)cc2)cc1 [Example J28, methyl ((1S)-2-((2S)-2-(5-(4′-(2-((2S)-1-(N-(methoxycarbonyl)-L-alanyl)-2-pyrrolidinyl)-4-(methylcarbamoyl)-1H-imidazol-5-yl)-4-biphenylyl)-1H-imidazol-2-yl)-l-pyrrolidinyl)-l-methyl-2-oxoethyl)carbamate] | 7.00 to 9.00 |
| COC(=O)N[C@@H](C(=O)N1CCC[C@H]1c1ncc(-c2ccc(-c3ccc(-c4[nH]c([C@@H]5CCCN5C(=O)[C@H](NC(=O)OC)c5ccccc5)nc4C(N)=O)cc3)cc2)[nH]1)c1ccccc1 [Example J29, methyl ((1R)-2-((2S)-2-(4-carbamoyl-5-(4′-(2-((2S)-1-((2R)-2-((methoxycarbonyl)amino)-2-phenylacetyl)-2-pyrrolidinyl)-1H-imidazol-5-yl)-4-biphenylyl)-1H-imidazol-2-yl)-1-pyrrolidinyl)-2-oxo-1-phenylethyl)carbamate] | 9.00 to 12.00 |
| COC(=O)N[C@@H](C(=O)N1CCC[C@H]1c1ncc(-c2ccc(-c3ccc(-c4[nH]c([C@@H]5CCCN5C(=O)[C@H](NC(=O)OC)c5ccccc5)nc4C(=O)O)cc3)cc2)[nH]1)c1ccccc1 [Example J30] | 7.00 to 9.00 |
| O=C(O)c1nc([C@@H]2CCCN2C(=O)[C@@H](c2ccccc2)N2CCCCC2)[nH]c1-c1ccc(-c2ccc(-c3cnc([C@@H]4CCCN4C(=O)[C@@H](c4ccccc4)N4CCCCC4)[nH]3)cc2)cc1 [Example J31, 2-((2S)-1-((2R)-2-phenyl-2-(1-piperidinyl)acetyl)-2-pyrrolidinyl)-5-(4′-(2-((2S)-1-((2R)-2-phenyl-2-(1-piperidinyl)acetyl)-2-pyrrolidinyl)-1H-imidazol-5-yl)-4-biphenylyl)-1H-imidazole-4-carboxylic acid] | 9.00 to 12.00 |
| COC(=O)N[C@@H](C(=O)N1CCC[C@H]1c1ncc(-c2ccc(-c3ccc(-c4[nH]c([C@@H]5CCCN5C(=O)[C@H](NC(=O)OC)c5ccccc5)nc4C(F)(F)F)cc3)cc2)[nH]1)c1ccccc1 [Example J37, methyl ((1R)-2-((2S)-2-(5-(4′-(2-((2S)-1-((2R)-2-((methoxycarbonyl)amino)-2-phenylacetyl)-2-pyrrolidinyl)-1H-imidazol-5-yl)-4-biphenylyl)-4-(trifluoromethyl)-1H-imidazol-2-yl)-1-pyrrolidinyl)-2-oxo-1-phenylethyl)carbamate] | 9.00 to 12.00 |
